Key:
HCT116 WT cells = assay: HCT116 WT cell proliferation / viability (CellTiter-Glo, 6 days); assay type: cell-based; details: Homo sapiens, HCT-116, 144 h, HCT116 WT cells, 6 days, CellTiter-Glo; read-out: HCT-116 WT IC50
Outline: (§1)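 Viability read by CellTiter-Glo after 6-day compound exposure of MTAP-null and wild-type HCT116 cells grown in RPMI 1640 with 10% FBS. Dosing used 1:3 steps from 1 or 10 μM (8-9 points) or 1:2 steps from 10 or 50 μM (22 points); IC50 taken where fitted curve crosses 50% of control.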

HCT116 MTAP null cells = assay: HCT116 MTAP null cell proliferation / viability (CellTiter-Glo, 6 days); assay type: cell-based; details: HCT116-MTAP null, 144 h, HCT116 MTAP null cells, 6 days, CellTiter-Glo; read-out: HCT-116 MTAP null IC50
Outline: as §1

| SMILES | IC50 (HCT116 WT cells) | IC50 (HCT116 MTAP null cells) |
| --- | --- | --- |
| N#Cc1ccc(CN(C(=O)c2ccc3nc(N)c4c(c3c2)COC4)C2CC2)nc1 [Example 454, 4-amino-N-((5-cyano-2-pyridinyl)methyl)-N-cyclopropyl-1,3-dihydrofuro[3,4-c]quinoline-8-carboxamide] | 17900 nM | 550 nM |
| Nc1nc2ccc(C(=O)N(Cc3ccc(Br)cn3)C3CC3)cc2c2c1COC2 [Example 455, 4-amino-N-((5-bromo-2-pyridinyl)methyl)-N-cyclopropyl-1,3-dihydrofuro[3,4-c]quinoline-8-carboxamide] | 4780 nM | 148 nM |
| Nc1nc2ccc(C(=O)N(Cc3ccc(C(F)F)cn3)C3CC3)cc2c2c1COC2 [Example 456, 4-amino-N-cyclopropyl-N-((5-(difluoromethyl)-2-pyridinyl)methyl)-1,3-dihydrofuro[3,4-c]quinoline-8-carboxamide] | > 10000 nM | 287 nM |
| N#Cc1ccc(CN(CC2(C#N)CC2)C(=O)c2ccc3nc(N)c4c(c3c2)COC4)nc1 [Example 457, 4-amino-N-((1-cyanocyclopropyl)methyl)-N-((5-cyano-2-pyridinyl)methyl)-1,3-dihydrofuro[3,4-c]quinoline-8-carboxamide] | 3180 nM | 132 nM |
| C[C@H](c1ncccn1)N(Cc1ccc(C2CC2)nn1)C(=O)c1ccc2nc(N)c3c(c2c1)COC3 [Example 458, 4-amino-N-((6-cyclopropyl-3-pyridazinyl)methyl)-N-((1R)-1-(2-pyrimidinyl)ethyl)-1,3-dihydrofuro[3,4-c]quinoline-8-carboxamide] | 361 nM | 26 nM |
| N#Cc1ccc(CN(C(=O)c2cc3c4c(c(N)nc3cc2Cl)COC4)C2CC2)nc1 [Example 461, 4-amino-7-chloro-N-((5-cyano-2-pyridinyl)methyl)-N-cyclopropyl-1,3-dihydrofuro[3,4-c]quinoline-8-carboxamide] | 4500 nM | 69 nM |
| COc1ccc(CN(C(=O)c2ccc3nc(N)c4c(c3c2)COC4)C(C)C)nc1Cl [Example 462, 4-amino-N-((6-chloro-5-methoxy-2-pyridinyl)methyl)-N-(2-propanyl)-1,3-dihydrofuro[3,4-c]quinoline-8-carboxamide] | 3940 nM | 105 nM |
| COC[C@@H](C)N(Cc1ccc(Br)nn1)C(=O)c1ccc2nc(N)c3c(c2c1)COC3 [Example 463, 4-amino-N-((6-bromo-3-pyridazinyl)methyl)-N-((2R)-1-methoxy-2-propanyl)-1,3-dihydrofuro[3,4-c]quinoline-8-carboxamide] | 440 nM | 14 nM |
| Nc1nc2cc(Cl)c(C(=O)N(Cc3ccc(C(F)(F)F)cn3)CC3CC3)cc2c2c1COC2 [Example 464, 4-amino-7-chloro-N-(cyclopropylmethyl)-N-((5-(trifluoromethyl)-2-pyridinyl)methyl)-1,3-dihydrofuro[3,4-c]quinoline-8-carboxamide] | 240 nM | 7 nM |
| CC(C)N(Cc1ccc(OC(F)(F)F)cn1)C(=O)c1ccc2nc(N)c3c(c2c1)CO[C@@H]3C [Example 465, (3R)-4-amino-3-methyl-N-(2-propanyl)-N-((5-(trifluoromethoxy)-2-pyridinyl)methyl)-1,3-dihydrofuro[3,4-c]quinoline-8-carboxamide] | 1230 nM | 31 nM |
| C[C@H](c1ncn(C)n1)N(Cc1ccc(C(F)F)cn1)C(=O)c1ccc2nc(N)c3c(c2c1)CO[C@@H]3C [Example 466, (3R)-4-amino-N-((5-(difluoromethyl)-2-pyridinyl)methyl)-3-methyl-N-((1R)-1-(1-methyl-1H-1,2,4-triazol-3-yl)ethyl)-1,3-dihydrofuro[3,4-c]quinoline-8-carboxamide] | 217 nM | 28 nM |
| C[C@H]1OCc2c1c(N)nc1ccc(C(=O)N(Cc3ccc(C(F)(F)F)cn3)c3cnn(C)c3)cc21 [Example 467, (3R)-4-amino-3-methyl-N-(1-methyl-1H-pyrazol-4-yl)-N-((5-(trifluoromethyl)-2-pyridinyl)methyl)-1,3-dihydrofuro[3,4-c]quinoline-8-carboxamide] | 332 nM | 14 nM |
| COC[C@@H](C)N(Cc1ccc(Br)nn1)C(=O)c1ccc2nc(N)c3c(c2c1)CO[C@@H]3C [Example 468, (3R)-4-amino-N-((6-bromo-3-pyridazinyl)methyl)-N-((2R)-1-methoxy-2-propanyl)-3-methyl-1,3-dihydrofuro[3,4-c]quinoline-8-carboxamide] | 208 nM | 8 nM |
| C[C@H](c1ncccn1)N(Cc1cc2c(cn1)OCCC2)C(=O)c1ccc2nc(N)c3c(c2c1)COC3 [Example 469, 4-amino-N-(3,4-dihydro-2H-pyrano [2,3-c]pyridin-6-ylmethyl)-N-((1R)-1-(2-pyrimidinyl)ethyl)-1,3-dihydrofuro[3,4-c]quinoline-8-carboxamide] | 550 nM | 25 nM |
| CN(Cc1ccc(C(F)(F)F)cn1)C(=O)c1cc2c3c(c(N)nc2cc1Cl)COC3 [Example 470, 4-amino-7-chloro-N-methyl-N-((5-(trifluoromethyl)-2-pyridinyl)methyl)-1,3-dihydrofuro[3,4-c]quinoline-8-carboxamide] | 3020 nM | 41 nM |
| Nc1nc2ccc(C(=O)N(Cc3ccc(C(F)(F)F)cn3)C34CC(C3)C4)cc2c2c1COC2 [Example 471, 4-amino-N-(bicyclo[1.1.1]pentan-1-yl)-N-((5-(trifluoromethyl)-2-pyridinyl)methyl)-1,3-dihydrofuro[3,4-c]quinoline-8-carboxamide] | 1160 nM | 43 nM |
| CN(Cc1ccc(C#N)cn1)C(=O)c1cc2c3c(c(N)nc2cc1Cl)COC3 [Example 472, 4-amino-7-chloro-N-((5-cyano-2-pyridinyl)methyl)-N-methyl-1,3-dihydrofuro[3,4-c]quinoline-8-carboxamide] | 14900 nM | 267 nM |
| N#Cc1ccc(CN(CC2CC2)C(=O)c2cc3c4c(c(N)nc3cc2Cl)COC4)nc1 [Example 474, 4-amino-7-chloro-N-((5-cyano-2-pyridinyl)methyl)-N-(cyclopropylmethyl)-1,3-dihydrofuro[3,4-c]quinoline-8-carboxamide] | 1330 nM | 30 nM |
| CN(Cc1ccc(C(F)(F)F)cn1)C(=O)c1cc2c3c(c(N)nc2cc1F)COC3 [Example 475, 4-amino-7-fluoro-N-methyl-N-((5-(trifluoromethyl)-2-pyridinyl)methyl)-1,3-dihydrofuro[3,4-c]quinoline-8-carboxamide] | 7810 nM | 375 nM |
| N#Cc1ccc(CN(C(=O)c2cc3c4c(c(N)nc3cc2F)COC4)C2CC2)nc1 [Example 476, 4-amino-N-((5-cyano-2-pyridinyl)methyl)-N-cyclopropyl-7-fluoro-1,3-dihydrofuro[3,4-c]quinoline-8-carboxamide] | 4460 nM | 1370 nM |
| CC(C)N(Cc1ccc(C#N)cn1)C(=O)c1cc2c3c(c(N)nc2cc1F)COC3 [Example 477, 4-amino-N-((5-cyano-2-pyridinyl)methyl)-7-fluoro-N-(2-propanyl)-1,3-dihydrofuro[3,4-c]quinoline-8-carboxamide] | 19400 nM | 655 nM |
| CN(Cc1ccc(C2CC2)cn1)C(=O)c1cc2c3c(c(N)nc2cc1Cl)COC3 [Example 478, 4-amino-7-chloro-N-((5-cyclopropyl-2-pyridinyl)methyl)-N-methyl-1,3-dihydrofuro[3,4-c]quinoline-8-carboxamide] | 9580 nM | 82 nM |
| CN(Cc1ccc(C#N)cn1)C(=O)c1cc2c3c(c(N)nc2cc1F)COC3 [Example 479, 4-amino-N-((5-cyano-2-pyridinyl)methyl)-7-fluoro-N-methyl-1,3-dihydrofuro[3,4-c]quinoline-8-carboxamide] | 17100 nM | 328 nM |
| Nc1nc2cc(Cl)c(C(=O)N(Cc3ccc(C4CC4)cn3)C3CC3)cc2c2c1COC2 [Example 480, 4-amino-7-chloro-N-cyclopropyl-N-((5-cyclopropyl-2-pyridinyl)methyl)-1,3-dihydrofuro[3,4-c]quinoline-8-carboxamide] | 1450 nM | 272 nM |
| C[C@H]1OCc2c1c(N)nc1ccc(C(=O)N(Cc3ccc(C(F)(F)F)cn3)CC(F)(F)F)cc21 [Example 481, (3R)-4-amino-3-methyl-N-(2,2,2-trifluoroethyl)-N-((5-(trifluoromethyl)-2-pyridinyl)methyl)-1,3-dihydrofuro[3,4-c]quinoline-8-carboxamide] | 5710 nM | 74 nM |
| CCOc1ccc(CN(C(=O)c2ccc3nc(N)c4c(c3c2)CO[C@@H]4C)C23CC(C2)C3)nn1 [Example 482, (3R)-4-amino-N-(bicyclo[1.1.1]pentan-1-yl)-N-((6-ethoxy-3-pyridazinyl)methyl)-3-methyl-1,3-dihydrofuro[3,4-c]quinoline-8-carboxamide] | 2640 nM | 52 nM |
| Nc1nc2ccc(C(=O)N(Cc3ccc(C(F)(F)F)cn3)CC(F)(F)F)cc2c2c1COC2 [Example 483, 4-amino-N-(2,2,2-trifluoroethyl)-N-((5-(trifluoromethyl)-2-pyridinyl)methyl)-1,3-dihydrofuro[3,4-c]quinoline-8-carboxamide] | 7290 nM | 458 nM |
| CC(C)N(Cc1ccc(C(F)(F)F)cn1)C(=O)c1cc2c3c(c(N)nc2cc1Cl)COC3 [Example 484, 4-amino-7-chloro-N-(2-propanyl)-N-((5-(trifluoromethyl)-2-pyridinyl)methyl)-1,3-dihydrofuro[3,4-c]quinoline-8-carboxamide] | 402 nM | 20 nM |
| C[C@H]1OCc2c1c(N)nc1ccc(C(=O)N(C)Cc3ccc(C(F)(F)F)nn3)cc21 [Example 485, (3R)-4-amino-N,3-dimethyl-N-((6-(trifluoromethyl)-3-pyridazinyl)methyl)-1,3-dihydrofuro[3,4-c]quinoline-8-carboxamide] | 32100 nM | 365 nM |

Source: patent US20240101570A1 (AMGEN INC., priority 2020, published 2024)
